Measurements: publication PMC11345504 (Current Research in Insect Science, 2024)

Key:
RpalOR1 [1] = target: T1, RpalOR1 (Rhynchophorus palmarum, UniProt A0A8A5RCH6); assay: single-sensillum recording, Drosophila at1 OSNs; assay type: cell-based; conditions: 500 ms, agonist
T1 sequence (A0A8A5RCH6 1-411): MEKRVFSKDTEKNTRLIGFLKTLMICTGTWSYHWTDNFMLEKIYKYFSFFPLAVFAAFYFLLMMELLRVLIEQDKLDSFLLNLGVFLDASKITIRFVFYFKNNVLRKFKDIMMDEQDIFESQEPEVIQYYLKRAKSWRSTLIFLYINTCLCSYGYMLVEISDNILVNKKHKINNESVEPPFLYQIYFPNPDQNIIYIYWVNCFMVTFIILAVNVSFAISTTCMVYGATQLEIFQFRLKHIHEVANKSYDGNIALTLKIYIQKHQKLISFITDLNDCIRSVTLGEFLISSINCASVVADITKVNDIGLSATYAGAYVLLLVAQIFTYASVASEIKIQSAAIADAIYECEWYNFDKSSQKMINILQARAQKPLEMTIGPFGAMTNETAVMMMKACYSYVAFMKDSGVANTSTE
T1 sequence (Q9VNB5 1-486 partner): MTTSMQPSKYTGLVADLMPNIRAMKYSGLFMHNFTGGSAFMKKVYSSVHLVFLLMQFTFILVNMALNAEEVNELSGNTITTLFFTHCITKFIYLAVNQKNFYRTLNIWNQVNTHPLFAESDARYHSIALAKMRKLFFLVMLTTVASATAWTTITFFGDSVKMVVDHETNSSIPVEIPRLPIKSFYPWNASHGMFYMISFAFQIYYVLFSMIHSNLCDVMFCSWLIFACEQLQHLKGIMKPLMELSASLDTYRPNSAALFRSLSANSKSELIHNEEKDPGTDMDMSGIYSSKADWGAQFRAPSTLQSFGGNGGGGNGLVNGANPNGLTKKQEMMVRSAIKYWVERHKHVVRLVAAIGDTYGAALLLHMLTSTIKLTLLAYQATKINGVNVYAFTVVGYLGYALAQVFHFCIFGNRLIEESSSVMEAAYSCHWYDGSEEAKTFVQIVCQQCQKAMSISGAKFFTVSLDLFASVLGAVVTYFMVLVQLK

RpalOR1 [2] = target: T1, RpalOR1; assay: single-sensillum recording, Drosophila at1 OSNs; assay type: cell-based; conditions: 1 µg in hexane on stimulus cartridge, 500 ms; agonist
RferOR1 = target: T2, RferOR1 (Rhynchophorus ferrugineus, UniProt A0A4P8W8S8); assay: single-sensillum recording, Drosophila at1 OSNs; assay type: cell-based; conditions: […] µg in paraffin oil on stimulus cartridge, […] ms; agonist
T2 sequence (A0A4P8W8S8 1-411): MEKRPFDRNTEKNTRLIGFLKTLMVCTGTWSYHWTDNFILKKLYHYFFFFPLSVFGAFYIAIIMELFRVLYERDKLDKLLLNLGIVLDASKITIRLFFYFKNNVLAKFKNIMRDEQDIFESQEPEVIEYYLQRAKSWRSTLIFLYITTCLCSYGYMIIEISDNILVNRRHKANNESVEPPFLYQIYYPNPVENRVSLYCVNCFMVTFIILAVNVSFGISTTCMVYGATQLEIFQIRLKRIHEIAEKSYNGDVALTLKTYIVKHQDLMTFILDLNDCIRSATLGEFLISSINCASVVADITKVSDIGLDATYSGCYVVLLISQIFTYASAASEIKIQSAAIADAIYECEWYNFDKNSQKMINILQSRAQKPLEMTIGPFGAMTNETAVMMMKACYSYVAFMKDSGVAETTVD
T2 sequence (Q9VNB5 1-486 partner): T1 sequence (Q9VNB5 1-486 partner)

RpalOR1 [3] = target: T1, RpalOR1; conditions: 100 µg in paraffin oil on stimulus cartridge, 500 ms; agonist
[4] = 1 µg in hexane on stimulus cartridge
[5] = 100 µg in paraffin oil on stimulus cartridge

CCCCC(=O)CCCC [nonan-5-one]
single-sensillum recording, Drosophila at1 OSNs (RpalOR1 [1]; [4]): The two last agonists were (E)‑oct-2-en-4-ol and nonan-5-one

CCCCC(O)C(C)CCC (stereo not drawn) [ferrugineol, 4-methylnonan-5-ol]
average response at 1 μg (RpalOR1 [2]): 112 action potentials per second

CCCCC(=O)OCC [ethyl valerate]
single-sensillum recording, Drosophila at1 OSNs (RpalOR1 [1]; [5]): propyl butyrate, butyl butyrate, ethyl valerate and ethyl hexanoate

CCCCC(O)CCCC [nonan-5-ol]
single-sensillum recording, Drosophila at1 OSNs (RpalOR1 [1]; [4]): RpalOR1 was activated by phoenicol as well as nonan-5-ol

C/C=C/C(O)C(C)CC (stereo not drawn) [(E)−5-methylhept-2-en-4-ol]
average response at 1 μg (RpalOR1 [2]): 27 action potentials per second

C/C=C/C(O)CCCC (stereo not drawn) [(E)‑oct-2-en-4-ol]
single-sensillum recording, Drosophila at1 OSNs (RpalOR1 [1]; [4]): The two last agonists were (E)‑oct-2-en-4-ol and nonan-5-one

CCCCCC(=O)OCC [ethyl hexanoate]
single-sensillum recording, Drosophila at1 OSNs (RpalOR1 [1]; [5]): propyl butyrate, butyl butyrate, ethyl valerate and ethyl hexanoate | single-sensillum recording, Drosophila at1 OSNs (RferOR1): propyl butyrate, butyl butyrate, ethyl valerate and ethyl hexanoate

CCCCC(O)C(C)CC (stereo not drawn) [phoenicol, 3-methyloctan-4-ol]
single-sensillum recording, Drosophila at1 OSNs (RpalOR1 [1]; [4]): RpalOR1 was activated by phoenicol as well as nonan-5-ol

CCCOC(=O)CCC [propyl butyrate]
average response at 100 μg (RpalOR1 [3]): 63 action potentials per second | single-sensillum recording, Drosophila at1 OSNs (RferOR1): both RpalOR1 and RferOR1 were significantly activated by the same palm tree esters: propyl butyrate

CCCCOC(=O)CCC [butyl butyrate]
single-sensillum recording, Drosophila at1 OSNs (RpalOR1 [1]; [5]): significantly activated by the same palm tree esters: propyl butyrate, butyl butyrate | single-sensillum recording, Drosophila at1 OSNs (RferOR1): significantly activated by the same palm tree esters: propyl butyrate, butyl butyrate

CCCC(=O)C(C)CCC (stereo not drawn) [5-methyloctan-4-one]
single-sensillum recording, Drosophila at1 OSNs (RpalOR1 [1]; [4]): We also found a response to 5-methyloctan-4-one

CCCCC(=O)C(C)CCC (stereo not drawn) [ferrugineone, 4-methylnonan-5-one]
average response at 1 μg (RpalOR1 [2]): 103 action potentials per second
